We go through two compounds from patent publication US20100285145A1, “GPR 119 MODULATORS” (PFIZER INC, priority 2009, published 2010).

Test [1] has as its system male Wistar rats. As to the kind of experiment: Intraperitoneal glucose tolerance test (IPGTT). The note with it: rat, 20 mg/kg in 0.5% methylcellulose, IP glucose administered 30 minutes post dose. The format is in vivo.
For test [2], the system named is male Wistar rats. As to the kind of experiment: Oral glucose tolerance test (OGTT). The format is in vivo. Particulars: rat; for Glucose 0-120 min AUC (percent vehicle response): 30 min before glucose 2 g/kg. From the text: All in vivo protocols were approved by the Pfizer's Animal Welfare Committee. Naive male Wistar rats (225-250 g body weight on receipt) were obtained from Harlan Laboratories (Indianapolis, Ind.), were pair housed in hanging plastic caging on Sani-chips sawdust bedding, and fed ad libitum on Purina 5001 chow. The rats were housed under a controlled light cycle (light from 6 am to 6 pm) at controlled temperature and humidity conditions. Rats were acclimated to the facility for at least 1 week prior to study.
Example 17 was formulated in 0.5% methylcellulose. The highest dose (30 mg/kg) was formulated at 6 mg/mL for administration at 5 mL/kg, the required bulk was added to a mortar and ground with a small amount of 0.5% methylcellulose to a smooth paste with a pestle, additional 0.5% methylcellulose was added until the mixture flowed, when it was transferred to a stirred container, the mortar was rinsed several times with remaining quantity of 0.5% methylcellulose and capped to prevent evaporation. The suspension was stirred continuously overnight with a magnetic stir bar prior to study, and the lower doses were diluted from the 6 mg/mL suspension using the appropriate volume of 0.5% methylcellulose. All dosing suspensions were stirred throughout the dosing procedure.
Rats were stratified (n=8/group) to vehicle (0.5% methylcellulose) or one of three dose groups (1, 5, or 30 mg/kg) according to body weight on day-1 to ensure that each group had equal group mean body weight values. The rats were fasted overnight in clean cages overnight (˜15 hours) prior to the oral glucose tolerance test. Body weights were recorded on the morning of the study (post fasting) for dose volume calculation. Blood samples were collected from all rats prior to dosing with vehicle or test compound via oral gavage (5 mL/kg). Thirty minutes later rats were bled and immediately dose with an oral dose of glucose (2 g/kg). The rats were re-bled at 15, 30, 60 and 120 minutes post-glucose load. Blood samples (˜250 μL/time point) were collected into EDTA tubes with aprotinin/DPPIVi (0.6 TIU/2 μL per mL whole blood). Blood tubes were inverted several times immediately following collection and placed on ice, then spun at 14,000 rpm in a refrigerated centrifuge for 5 minutes. Plasma samples were analyzed for glucose levels using a Roche 912 clinical chemistry analyzer, plasma insulin concentrations were determined using the Alpco Ultra-Sensitive Insulin Rat ELISA, and total amide GLP-1 concentrations were determined using MSD ELISA kit.
The results are presented as mean+/−SEM (standard error of the mean) unless otherwise stated. Statistical evaluation of the data is carried out using one-way analysis of variance (ANOVA) with appropriate post-hoc analysis between vehicle and treatment group. Differences compared to vehicle with a p>0.05 were considered statistically significant using Dunnett's T-test.

With `CC(C)OC(=O)N1CCC(Oc2cc(N3CCc4cc(S(C)(=O)=O)ccc43)ncn2)CC1` [Example 3, Isopropyl 4-({6-[5-(methylsulfonyl)-2,3-dihydro-1H-indol-1-yl]pyrimidin-4-yl}oxy)piperidine-1-carboxylate], the “Insulin AUC (0-60 min) (percent vehicle response)” value in test [1] stood at 104 percent vehicle response.

Take `Cc1c(O[C@H]2CCN(C(=O)OC3(C)CC3)C[C@H]2F)ncnc1N1CCc2ncccc21` [Example 17, 1-Methylcyclopropyl (3R,4S)-4-{[6-(2,3-dihydro-1H-pyrrolo[3,2-b]pyridin-1-yl)-5-methylpyrimidin-4-yl]oxy}-3-fluoropiperidine-1-carboxylate]: in test [2] (1 mg/kg oral), the “Insulin 0-60 min AUC (percent vehicle response)” value is 90 percent vehicle response, the “Total Amide GLP-1 0-120 min AUC (percent vehicle response)” value is 147 percent vehicle response and the “Glucose 0-120 min AUC (percent vehicle response)” value came to 102 percent vehicle response. In test [2] (5 mg/kg oral), the “Insulin 0-60 min AUC (percent vehicle response)” value was determined as 142 percent vehicle response, the “Total Amide GLP-1 0-120 min AUC (percent vehicle response)” value is given as “+184 percent vehicle response” and the “Glucose 0-120 min AUC (percent vehicle response)” value amounted to 95 percent vehicle response. In test [2] (30 mg/kg oral), the “Insulin 0-60 min AUC (percent vehicle response)” value was 112 percent vehicle response, the “Total Amide GLP-1 0-120 min AUC (percent vehicle response)” value was 150 percent vehicle response and the “Glucose 0-120 min AUC (percent vehicle response)” value was “++90 percent vehicle response”.
